How the values were obtained:
[1] = target: T1, Coelenterazine h 2-monooxygenase (Renilla reniformis, UniProt P27652)
T1 sequence (P27652 whole entry): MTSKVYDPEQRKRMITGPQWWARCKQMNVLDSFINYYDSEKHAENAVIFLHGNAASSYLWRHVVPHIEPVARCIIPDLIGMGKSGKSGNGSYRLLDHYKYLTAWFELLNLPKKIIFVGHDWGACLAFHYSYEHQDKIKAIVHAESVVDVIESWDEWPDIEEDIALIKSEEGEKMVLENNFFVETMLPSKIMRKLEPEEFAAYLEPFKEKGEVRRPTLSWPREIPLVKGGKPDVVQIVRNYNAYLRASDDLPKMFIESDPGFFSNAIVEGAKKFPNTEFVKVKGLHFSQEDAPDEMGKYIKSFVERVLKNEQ
Description: GSK_PKIS: Inhibition of Sea Pansy Luciferase (Data from PubChem: AID 652015) [NIH NCATS]

[2] = target: Luciferin 4-monooxygenase (Photinus pyralis, UniProt P08659)
Chain of Luciferin 4-monooxygenase (P08659 whole entry): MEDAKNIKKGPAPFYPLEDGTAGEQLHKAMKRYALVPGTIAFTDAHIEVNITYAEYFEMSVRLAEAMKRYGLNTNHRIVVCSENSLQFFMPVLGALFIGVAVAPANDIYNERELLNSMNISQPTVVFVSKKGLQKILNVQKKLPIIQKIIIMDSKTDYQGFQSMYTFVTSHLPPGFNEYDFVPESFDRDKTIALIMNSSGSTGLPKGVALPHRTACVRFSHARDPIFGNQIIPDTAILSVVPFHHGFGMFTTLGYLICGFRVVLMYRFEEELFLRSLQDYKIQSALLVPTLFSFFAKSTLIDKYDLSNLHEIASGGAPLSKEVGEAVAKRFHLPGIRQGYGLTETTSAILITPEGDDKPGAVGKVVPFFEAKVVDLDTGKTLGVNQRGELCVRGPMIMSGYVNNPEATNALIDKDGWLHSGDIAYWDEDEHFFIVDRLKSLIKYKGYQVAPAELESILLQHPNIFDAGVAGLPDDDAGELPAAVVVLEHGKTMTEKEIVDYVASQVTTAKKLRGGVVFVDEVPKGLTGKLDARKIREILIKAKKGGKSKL
Description: GSK_PKIS: Inhibition of Firefly Luciferase (Data from PubChem: AID 652016) [NIH NCATS]

| AC50 ([1]; read-out: AC50) [µM] | AC50 ([2]; read-out: AC50) [µM] | Compound | AC50 [1] | AC50 [2] |
| --- | --- | --- | --- | --- |
| 46.1 | – | COc1cc2c(cc1Nc1nc(Nc3ccsc3C(N)=O)c3cc[nH]c3n1)N(C(=O)CN(C)C)CCC2 [GSK-2110236A] | – | Phenotype: Inactive; Curve_Description: None |
| 23.1 | 16.3 | CS(=O)(=O)Nc1ccc(N/C=C2\C(=O)Nc3ccccc32)cc1 [GW278681X] | – | – |
| 29.1 | – | Cc1cc(Cl)cc2c1NC(=O)C2=NNc1ccc(S(N)(=O)=O)cc1 [GW279320X] | – | Phenotype: Inactive; Curve_Description: None |
| 18.3 | – | Cc1cccc2c1NC(=O)/C2=N\Nc1ccc(S(N)(=O)=O)cc1 [GW282536X] | – | Phenotype: Inactive; Curve_Description: None |
| – | 29.1 | c1ccc(COc2ccc(Nc3ncnc4ccc(-c5ccco5)cc34)cc2)cc1 [GW284372X] | Phenotype: Inactive; Curve_Description: None | – |
| 25.9 | – | COc1ccc2[nH]c3c4[nH]c5ccc(OC)cc5c4c4c(c3c2c1)C(=O)NC4=O [GW296115X] | – | Phenotype: Inactive; Curve_Description: None |
| 32.6 | – | NS(=O)(=O)c1ccc(N/C=C2\C(=O)Nc3ccc4ncsc4c32)cc1 [GW297361X] | – | Phenotype: Inactive; Curve_Description: None |
| – | 41.1 | CC(C)(CO)CNC(=O)c1ccc2c(c1)/C(=N/Nc1ccc(S(N)(=O)=O)cc1)C(=O)N2 [GW301784X] | Phenotype: Inactive; Curve_Description: None | – |
| – | 18.3 | O=C1Nc2ccccc2/C1=C/Nc1ccc(-n2cncn2)cc1 [GW301789X] | Phenotype: Inactive; Curve_Description: None | – |
| 18.3 | 16.3 | CN(C)c1cc2c(Nc3ccc4nc(Cc5ccccc5)[nH]c4c3)ncnc2cn1 [GW301888X] | – | – |
| 20.6 | – | CC(C)=Cc1cccc2c1/C(=N/Nc1ccc(S(N)(=O)=O)cc1)C(=O)N2 [GW396574X] | – | Phenotype: Inactive; Curve_Description: None |
| 16.3 | 18.3 | O=C1Nc2ccc(C(=O)c3ccco3)cc2C1=Cc1cc(Cl)c(O)c(Cl)c1 [GW406108X] | – | – |
| 20.6 | 29.1 | Nc1nc(-c2ccc3c(c2)C(=Cc2cc(Br)c(O)c(Br)c2)C(=O)N3)cs1 [GW407323A] | – | – |
| 18.3 | 32.6 | O=C1Nc2ccc(-c3cccnc3)cc2C1=Cc1cc(Br)c(O)c(Br)c1 [GW429374A] | – | – |
| 23.1 | 1.16 | Fc1ccc(-c2nn3ccccc3c2-c2ccncc2)cc1 [GW434756X] | – | – |
| 23.1 | 20.6 | Cc1ccc(O)cc1Nc1ccnc2cc(-c3ccccn3)ccc12 [GW440139A] | – | – |
| – | 29.1 | Cc1cc(O)cc(C)c1/C=C/c1cncc(-c2nn[nH]n2)c1.Cl [GW441806A] | Phenotype: Inactive; Curve_Description: None | – |

The remaining lines, values behind:

| Compound | AC50 ([1]; read-out: AC50) [µM] | AC50 ([2]; read-out: AC50) [µM] | AC50 [1] | AC50 [2] |
| --- | --- | --- | --- | --- |
| COc1cc(N2CCN(C(C)C)CC2)ccc1Nc1nc(Nc2ccc(F)cc2C(=O)NC[C@@H](O)CO)c2cc[nH]c2n1 [GSK-1392956A] | – | – | Phenotype: Inactive; Curve_Description: None | Phenotype: Inactive; Curve_Description: None |
| COc1cc(N2CCN(C(C)C)CC2)ccc1Nc1nc(Nc2cccc3ncccc23)c2cc[nH]c2n1 [GSK-1511931A] | 18.3 | 25.9 | – | – |
| CCCN1CCC(Oc2cc(Nc3nc(Nc4cccc(F)c4C(N)=O)c4cc[nH]c4n3)c(OC)cc2Cl)CC1 [GSK-1713088A] | – | 0.291 | Phenotype: Activator; Curve_Description: None | – |
| COc1cc2c(cc1Nc1nc(Nc3cccc(F)c3C(N)=O)c3cc[nH]c3n1)N(C(=O)CN1CCN(C(C)C)CC1)CC2 [GSK-1751853A] | 36.6 | – | – | Phenotype: Inactive; Curve_Description: None |
| COc1cc(N2CCN(C(C)C)CC2)ccc1Nc1nc(Nc2cccc(F)c2C(=O)O)c2cc[nH]c2n1 [GSK-1819799A] | – | – | Phenotype: Inactive; Curve_Description: None | Phenotype: Inactive; Curve_Description: None |
| COc1cc2c(cc1Nc1nc(Nc3ccsc3C(N)=O)c3cc[nH]c3n1)N(C(=O)CN(C)C)CCC2(C)C [GSK-2163632A] | – | – | Phenotype: Inactive; Curve_Description: None | Phenotype: Inactive; Curve_Description: None |
| COc1cc2c(cc1Nc1nc(N3CCc4ccccc43)c3cc[nH]c3n1)N(C(=O)CN(C)C)CC2 [GSK-2186269A] | 23.1 | – | – | Phenotype: Inactive; Curve_Description: None |
| COc1cc(C)c(NC(=O)CN(C)C)cc1Nc1nc(Nc2cccc(F)c2C(N)=O)c2cc[nH]c2n1 [GSK-2213727A] | – | – | Phenotype: Inactive; Curve_Description: None | Phenotype: Inactive; Curve_Description: None |
| COc1cc(C)c(N(C)C(=O)CN(C)C)cc1Nc1nc(Nc2cccc(F)c2C(N)=O)c2cc[nH]c2n1 [GSK-2219385A] | – | – | Phenotype: Inactive; Curve_Description: None | Phenotype: Inactive; Curve_Description: None |
| CNC(=O)c1ncccc1Nc1nc(Nc2cc3c(cc2OC)CCCN3C(=O)CN(C)C)nc2[nH]ccc12 [GSK-2220400A] | – | – | Phenotype: Activator; Curve_Description: None | Phenotype: Inactive; Curve_Description: None |
| NS(=O)(=O)c1cccc(N/C=C2\C(=O)Nc3ccccc32)c1 [GW275616X] | – | 18.3 | Phenotype: Inactive; Curve_Description: None | – |
| Cc1ccc2c(c1)/C(=N/Nc1ccc(S(N)(=O)=O)cc1)C(=O)N2 [GW275944X] | – | – | Phenotype: Inactive; Curve_Description: None | Phenotype: Inactive; Curve_Description: None |
| NS(=O)(=O)c1ccc(N/N=C2\C(=O)Nc3ccc(-c4cnco4)cc32)cc1 [GW276655X] | – | – | Phenotype: Inactive; Curve_Description: None | Phenotype: Inactive; Curve_Description: None |
| NS(=O)(=O)c1ccc(N/N=C2\C(=O)Nc3ccc(Cl)cc32)cc1 [GW280670X] | 36.6 | 41.1 | – | – |
| COc1cc2ncnc(Nc3ccc4c(cnn4Cc4ccccc4)c3)c2cc1OC.Cl [GW282449A] | – | – | Phenotype: Inactive; Curve_Description: None | Phenotype: Inactive; Curve_Description: None |
| CN(C)c1cc2c(Nc3ccc4c(cnn4Cc4ccccc4)c3)ncnc2cn1 [GW282974X] | 23.1 | – | – | Phenotype: Inactive; Curve_Description: None |
| O=C1Nc2ccccc2/C1=C/Nc1ccc2[nH]c(=O)[nH]c2c1 [GW284408X] | – | 4.11 | Phenotype: Inactive; Curve_Description: None | – |
| NS(=O)(=O)c1ccc(N/N=C2\C(=O)Nc3ccc(C(=O)NCCCn4ccnc4)cc32)cc1 [GW290597X] | 18.3 | – | – | Phenotype: Inactive; Curve_Description: None |

| Compound | AC50 ([1]; read-out: AC50) [µM] | AC50 ([2]; read-out: AC50) [µM] | AC50 [1] | AC50 [2] |
| --- | --- | --- | --- | --- |
| CC(C)c1ccc2c(c1)NC(=O)/C2=N/Nc1ccc(S(N)(=O)=O)cc1 [GW300653X] | – | – | Phenotype: Inactive; Curve_Description: None | Phenotype: Inactive; Curve_Description: None |
| NS(=O)(=O)c1ccc(N/N=C2\C(=O)Nc3ccc(C(=O)NCc4ccncc4)cc32)cc1 [GW300657X] | – | – | Phenotype: Inactive; Curve_Description: None | Phenotype: Inactive; Curve_Description: None |
| NS(=O)(=O)c1ccc(N/N=C2\C(=O)Nc3ccc(C(=O)NCCc4c[nH]cn4)cc32)cc1 [GW300660X] | 16.3 | – | – | Phenotype: Inactive; Curve_Description: None |
| O=C1Nc2ccc(I)cc2C1=Cc1cc(Br)c(O)c(Br)c1 [GW305074X] | 20.6 | – | – | Phenotype: Inactive; Curve_Description: None |
| NS(=O)(=O)c1ccc(N/N=C2\C(=O)Nc3ccc4ncccc4c32)cc1 [GW305178X] | 23.1 | 29.1 | – | – |
| C/C(Nc1ccc(S(N)(=O)=O)cc1)=C1/C(=O)Nc2ccccc21 [GW335962X] | – | 3.66 | Phenotype: Inactive; Curve_Description: None | – |
| Cl.NS(=O)(=O)c1ccc(N/N=C2\C(=O)Nc3cccc(CCc4ccncc4)c32)cc1 [GW352430A] | – | – | Phenotype: Inactive; Curve_Description: None | Phenotype: Inactive; Curve_Description: None |
| COC(=O)c1ccc2c(c1)C(=Cc1cc(Br)c(O)c(Br)c1)C(=O)N2 [GW405841X] | 13 | 20.6 | – | – |
| COC(=O)c1cncc(/C=C/c2c(C)cc(O)cc2C)c1 [GW406731X] | – | – | Phenotype: Inactive; Curve_Description: None | Phenotype: Inactive; Curve_Description: None |
| COc1cc2ncnc(Nc3ccc(C)c(O)c3)c2cc1OC.Cl [GW410563A] | – | – | Phenotype: Inactive; Curve_Description: None | Phenotype: Inactive; Curve_Description: None |
| CN(C)c1ccc2c(c1)/C(=C/Nc1ccc(S(N)(=O)=O)cc1)C(=O)N2 [GW416469X] | 5.8 | – | – | Phenotype: Inactive; Curve_Description: None |
| CC(C)COC(=O)c1ccc2c(c1)/C(=C/Nc1ccc(S(N)(=O)=O)cc1)C(=O)N2 [GW416981X] | – | – | Phenotype: Inactive; Curve_Description: None | Phenotype: Inactive; Curve_Description: None |
| Cc1cc(O)cc(C)c1/C=C/c1cncc(C(=O)N(C)C)c1 [GW427984X] | – | – | Phenotype: Inactive; Curve_Description: None | Phenotype: Inactive; Curve_Description: None |
| CNC(=O)Oc1cc(C)c(/C=C/c2cncc(C(=O)NC)c2)c(C)c1 [GW432441X] | – | 29.1 | Phenotype: Inactive; Curve_Description: None | – |
| Cc1cc(O)cc(C)c1/C=C/c1cncc(C(N)=O)c1 [GW435821X] | – | – | Phenotype: Inactive; Curve_Description: None | Phenotype: Inactive; Curve_Description: None |
| Cc1cc(O)cc(C)c1/C=C/c1cncc(C(=O)OC(C)(C)C)c1 [GW439255X] | – | – | Phenotype: Inactive; Curve_Description: None | Phenotype: Inactive; Curve_Description: None |
| Cn1cc(C=C2C(=O)Nc3cccnc32)c2ccccc21 [GW441756X] | 20.6 | 14.6 | – | – |

Source: ChEMBL document CHEMBL2303647, “Data associated with the publication PLoS ONE, 8(3), e57888, (2013) PMID: 23505445. Compounds: GSK PKIS; Assays: NIH NCATS”
